Article PMC8213057, “Targeting ALK2: An Open Science Approach to Developing Therapeutics for the Treatment of Diffuse Intrinsic Pontine Glioma” (Journal of Medicinal Chemistry, 2020)

Experiments:
[1] = human liver microsomal stability assay; assay type: in vitro ADME; conditions: human, microsomes, pH 7.4, human liver microsomes, 60 min, 37 °C, read-out: HLM % Remaining at 1h
DDR2 = biological target: T1, DDR2 (Homo sapiens, UniProt Q16832); conditions: 1 μM; Run 1, Run 2
T1 sequence (Q16832 22-855): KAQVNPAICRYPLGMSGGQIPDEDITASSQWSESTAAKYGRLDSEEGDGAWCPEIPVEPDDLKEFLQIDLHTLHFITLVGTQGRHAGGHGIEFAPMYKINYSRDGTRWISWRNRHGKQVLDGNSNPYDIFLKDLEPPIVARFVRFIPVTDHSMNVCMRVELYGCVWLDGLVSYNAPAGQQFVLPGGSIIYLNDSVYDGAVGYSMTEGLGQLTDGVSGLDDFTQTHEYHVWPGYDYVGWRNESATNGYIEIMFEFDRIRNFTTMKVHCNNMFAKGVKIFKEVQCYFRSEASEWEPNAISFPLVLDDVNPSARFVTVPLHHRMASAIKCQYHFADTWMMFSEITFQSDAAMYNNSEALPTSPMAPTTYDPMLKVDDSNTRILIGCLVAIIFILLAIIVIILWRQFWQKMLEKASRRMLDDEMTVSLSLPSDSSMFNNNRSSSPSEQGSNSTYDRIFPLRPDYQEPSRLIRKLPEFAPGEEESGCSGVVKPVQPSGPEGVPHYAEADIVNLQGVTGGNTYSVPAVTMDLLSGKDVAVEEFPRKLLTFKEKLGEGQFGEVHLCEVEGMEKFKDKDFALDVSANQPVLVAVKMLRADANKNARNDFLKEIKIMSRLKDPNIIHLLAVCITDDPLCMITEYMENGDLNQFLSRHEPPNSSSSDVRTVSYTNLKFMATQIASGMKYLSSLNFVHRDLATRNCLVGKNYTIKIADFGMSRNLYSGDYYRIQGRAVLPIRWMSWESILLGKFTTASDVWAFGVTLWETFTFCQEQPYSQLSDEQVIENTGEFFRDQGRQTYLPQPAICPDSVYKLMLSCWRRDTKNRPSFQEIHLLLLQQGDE

CAMK1g = CAMK1g (Homo sapiens, UniProt Q96NX5); test: biochemical; conditions: read-out: % enzyme activity, 1 μM; Run 1, Run 2
EGFR = EGFR (Homo sapiens, UniProt P00533); conditions: 1 μM; Run 1, Run 2
MEKK3 = biological target: T2, MEKK3 (Homo sapiens, UniProt Q99759); test: biochemical; conditions: read-out: % enzyme activity, 1 μM; Run 1, Run 2
T2 sequence (Q99759 1-626): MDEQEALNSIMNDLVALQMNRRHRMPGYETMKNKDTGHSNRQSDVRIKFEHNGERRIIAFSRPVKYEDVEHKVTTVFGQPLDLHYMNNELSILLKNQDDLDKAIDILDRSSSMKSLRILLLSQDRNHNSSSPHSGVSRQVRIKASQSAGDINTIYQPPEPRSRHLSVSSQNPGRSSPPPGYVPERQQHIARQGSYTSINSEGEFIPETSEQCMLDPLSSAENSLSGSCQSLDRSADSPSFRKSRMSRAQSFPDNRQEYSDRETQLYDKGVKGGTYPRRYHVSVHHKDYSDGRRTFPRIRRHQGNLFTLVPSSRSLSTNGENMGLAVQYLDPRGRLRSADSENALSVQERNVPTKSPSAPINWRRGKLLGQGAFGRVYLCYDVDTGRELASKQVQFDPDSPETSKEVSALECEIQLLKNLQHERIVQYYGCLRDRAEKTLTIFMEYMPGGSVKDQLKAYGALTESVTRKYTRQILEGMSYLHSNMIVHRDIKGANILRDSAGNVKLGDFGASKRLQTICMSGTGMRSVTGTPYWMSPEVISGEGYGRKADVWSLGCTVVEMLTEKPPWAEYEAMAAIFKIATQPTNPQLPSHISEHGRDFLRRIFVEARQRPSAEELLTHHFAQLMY

DAPK1 = DAPK1 (Homo sapiens, UniProt P53355); conditions: 1 μM; Run 1, Run 2
PKG1a = biological target: T3, PKG1a (Homo sapiens, UniProt Q13976); test: biochemical; conditions: read-out: % enzyme activity, 1 μM; Run 1, Run 2
T3 sequence (Q13976 1-671): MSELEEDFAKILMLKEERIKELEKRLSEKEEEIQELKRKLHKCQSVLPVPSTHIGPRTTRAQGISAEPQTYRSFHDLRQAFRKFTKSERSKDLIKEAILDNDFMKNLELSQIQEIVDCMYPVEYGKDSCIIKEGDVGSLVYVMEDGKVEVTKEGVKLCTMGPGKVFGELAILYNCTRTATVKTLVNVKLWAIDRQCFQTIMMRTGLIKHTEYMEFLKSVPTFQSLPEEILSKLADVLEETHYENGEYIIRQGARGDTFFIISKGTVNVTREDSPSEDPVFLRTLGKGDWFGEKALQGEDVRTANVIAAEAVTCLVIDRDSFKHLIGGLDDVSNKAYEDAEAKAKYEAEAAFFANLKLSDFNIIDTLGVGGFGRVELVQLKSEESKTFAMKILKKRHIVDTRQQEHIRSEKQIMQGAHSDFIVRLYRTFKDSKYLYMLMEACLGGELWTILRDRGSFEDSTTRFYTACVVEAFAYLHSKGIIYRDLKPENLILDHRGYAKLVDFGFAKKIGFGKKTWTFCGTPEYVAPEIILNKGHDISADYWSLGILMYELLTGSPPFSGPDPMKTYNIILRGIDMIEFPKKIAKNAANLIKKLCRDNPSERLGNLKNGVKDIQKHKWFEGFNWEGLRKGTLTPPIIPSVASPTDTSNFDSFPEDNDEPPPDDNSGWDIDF

CK1G3 = CK1G3 (Homo sapiens, UniProt Q9Y6M4); conditions: 1 μM; Run 1, Run 2
EPHA5 = EPHA5 (Homo sapiens, UniProt P54756); test: biochemical; conditions: read-out: % enzyme activity, 1 μM; Run 1, Run 2
ROCK2 = ROCK2 (Homo sapiens, UniProt O75116); test: biochemical; conditions: read-out: % enzyme activity, 1 μM; Run 1, Run 2
ROCK2, sequence (O75116 whole entry): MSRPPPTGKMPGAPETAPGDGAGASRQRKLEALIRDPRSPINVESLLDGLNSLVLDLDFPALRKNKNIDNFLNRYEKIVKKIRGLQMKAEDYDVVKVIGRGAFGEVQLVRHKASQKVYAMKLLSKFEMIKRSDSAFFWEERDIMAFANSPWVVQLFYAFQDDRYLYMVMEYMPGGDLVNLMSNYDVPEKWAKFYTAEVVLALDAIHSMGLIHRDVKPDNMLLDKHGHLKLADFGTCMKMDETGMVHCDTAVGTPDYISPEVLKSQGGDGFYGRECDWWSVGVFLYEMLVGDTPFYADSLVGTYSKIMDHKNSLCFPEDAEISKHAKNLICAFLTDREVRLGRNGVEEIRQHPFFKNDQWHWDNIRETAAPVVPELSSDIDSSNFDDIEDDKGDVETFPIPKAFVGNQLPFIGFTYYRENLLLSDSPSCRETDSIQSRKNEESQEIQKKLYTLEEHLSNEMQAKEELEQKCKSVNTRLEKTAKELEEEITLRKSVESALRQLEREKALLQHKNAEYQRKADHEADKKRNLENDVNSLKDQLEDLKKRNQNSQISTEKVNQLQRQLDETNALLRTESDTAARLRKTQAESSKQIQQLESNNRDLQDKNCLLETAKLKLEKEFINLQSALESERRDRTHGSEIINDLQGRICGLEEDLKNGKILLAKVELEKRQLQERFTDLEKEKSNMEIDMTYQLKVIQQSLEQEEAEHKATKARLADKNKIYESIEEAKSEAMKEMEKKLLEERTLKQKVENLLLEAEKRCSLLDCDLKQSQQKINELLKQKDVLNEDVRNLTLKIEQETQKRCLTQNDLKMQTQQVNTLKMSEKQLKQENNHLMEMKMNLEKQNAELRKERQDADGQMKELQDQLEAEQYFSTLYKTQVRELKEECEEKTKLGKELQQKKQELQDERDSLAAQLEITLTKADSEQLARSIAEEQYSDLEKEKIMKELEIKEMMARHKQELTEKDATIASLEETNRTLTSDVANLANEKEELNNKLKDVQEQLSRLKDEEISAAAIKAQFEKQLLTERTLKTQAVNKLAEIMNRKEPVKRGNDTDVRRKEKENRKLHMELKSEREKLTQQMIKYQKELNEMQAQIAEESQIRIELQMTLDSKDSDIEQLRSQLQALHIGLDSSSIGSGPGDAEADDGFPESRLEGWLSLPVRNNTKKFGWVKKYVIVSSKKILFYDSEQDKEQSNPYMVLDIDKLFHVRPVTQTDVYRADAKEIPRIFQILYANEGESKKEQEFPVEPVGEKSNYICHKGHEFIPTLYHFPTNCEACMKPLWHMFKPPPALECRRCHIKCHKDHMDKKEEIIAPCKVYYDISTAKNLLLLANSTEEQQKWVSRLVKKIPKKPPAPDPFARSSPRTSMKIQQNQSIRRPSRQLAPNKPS

CAMK1g, sequence (Q96NX5 whole entry): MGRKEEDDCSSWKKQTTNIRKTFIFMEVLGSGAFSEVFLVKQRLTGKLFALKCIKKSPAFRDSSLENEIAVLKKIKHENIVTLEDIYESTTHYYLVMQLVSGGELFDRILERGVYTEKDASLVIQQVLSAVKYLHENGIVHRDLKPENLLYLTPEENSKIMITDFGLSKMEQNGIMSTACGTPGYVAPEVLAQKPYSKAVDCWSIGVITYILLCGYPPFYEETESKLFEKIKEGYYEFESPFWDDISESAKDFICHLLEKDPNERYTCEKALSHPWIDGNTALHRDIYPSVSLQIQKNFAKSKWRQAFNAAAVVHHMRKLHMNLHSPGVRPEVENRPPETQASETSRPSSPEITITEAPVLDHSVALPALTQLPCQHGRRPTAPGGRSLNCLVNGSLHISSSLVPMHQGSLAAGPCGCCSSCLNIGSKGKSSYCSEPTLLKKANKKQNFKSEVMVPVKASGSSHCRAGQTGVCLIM
EGFR, sequence (P00533 25-1210): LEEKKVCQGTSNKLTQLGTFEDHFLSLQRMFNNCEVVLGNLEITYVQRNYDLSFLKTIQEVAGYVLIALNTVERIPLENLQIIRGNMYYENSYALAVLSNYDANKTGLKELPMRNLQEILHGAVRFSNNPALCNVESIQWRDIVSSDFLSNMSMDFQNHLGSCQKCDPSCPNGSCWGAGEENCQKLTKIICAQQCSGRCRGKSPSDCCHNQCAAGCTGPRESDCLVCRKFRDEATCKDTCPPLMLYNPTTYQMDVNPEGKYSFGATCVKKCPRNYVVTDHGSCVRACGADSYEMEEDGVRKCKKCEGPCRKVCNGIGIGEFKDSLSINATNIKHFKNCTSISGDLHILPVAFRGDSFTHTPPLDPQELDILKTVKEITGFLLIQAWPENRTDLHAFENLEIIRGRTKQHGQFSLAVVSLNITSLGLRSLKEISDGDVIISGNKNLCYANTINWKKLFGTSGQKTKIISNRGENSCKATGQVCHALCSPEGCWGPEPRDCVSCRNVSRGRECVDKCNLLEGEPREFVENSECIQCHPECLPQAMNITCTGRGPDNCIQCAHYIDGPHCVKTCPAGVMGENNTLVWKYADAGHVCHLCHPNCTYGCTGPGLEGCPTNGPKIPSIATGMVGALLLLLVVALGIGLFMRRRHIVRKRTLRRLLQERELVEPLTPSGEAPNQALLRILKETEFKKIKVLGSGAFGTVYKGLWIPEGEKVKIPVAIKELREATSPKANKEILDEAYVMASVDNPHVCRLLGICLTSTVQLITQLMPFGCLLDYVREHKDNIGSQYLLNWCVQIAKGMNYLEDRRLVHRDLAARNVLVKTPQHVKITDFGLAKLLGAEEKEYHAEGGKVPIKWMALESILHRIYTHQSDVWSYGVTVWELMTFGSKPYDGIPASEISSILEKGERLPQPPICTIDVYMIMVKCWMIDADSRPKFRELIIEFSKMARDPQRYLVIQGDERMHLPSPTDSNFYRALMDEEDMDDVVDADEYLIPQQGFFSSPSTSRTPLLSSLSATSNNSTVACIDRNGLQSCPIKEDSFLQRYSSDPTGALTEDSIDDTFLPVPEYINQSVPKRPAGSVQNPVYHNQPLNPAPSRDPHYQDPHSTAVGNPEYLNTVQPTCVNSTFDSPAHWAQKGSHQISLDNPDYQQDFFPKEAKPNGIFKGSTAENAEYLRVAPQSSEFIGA
CK1G3, sequence (Q9Y6M4 whole entry): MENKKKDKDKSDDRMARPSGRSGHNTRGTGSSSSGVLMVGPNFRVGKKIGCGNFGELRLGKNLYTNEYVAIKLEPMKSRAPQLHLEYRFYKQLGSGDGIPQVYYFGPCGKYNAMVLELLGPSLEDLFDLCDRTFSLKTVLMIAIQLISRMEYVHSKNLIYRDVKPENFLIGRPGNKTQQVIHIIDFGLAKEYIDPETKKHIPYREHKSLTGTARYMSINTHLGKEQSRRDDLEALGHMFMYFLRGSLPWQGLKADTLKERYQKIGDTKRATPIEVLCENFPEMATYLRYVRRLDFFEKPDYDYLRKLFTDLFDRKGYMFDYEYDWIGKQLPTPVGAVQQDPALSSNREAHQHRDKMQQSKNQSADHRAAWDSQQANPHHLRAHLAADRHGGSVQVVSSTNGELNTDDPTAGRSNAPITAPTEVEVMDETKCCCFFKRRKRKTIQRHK
EPHA5, sequence (P54756 25-1037): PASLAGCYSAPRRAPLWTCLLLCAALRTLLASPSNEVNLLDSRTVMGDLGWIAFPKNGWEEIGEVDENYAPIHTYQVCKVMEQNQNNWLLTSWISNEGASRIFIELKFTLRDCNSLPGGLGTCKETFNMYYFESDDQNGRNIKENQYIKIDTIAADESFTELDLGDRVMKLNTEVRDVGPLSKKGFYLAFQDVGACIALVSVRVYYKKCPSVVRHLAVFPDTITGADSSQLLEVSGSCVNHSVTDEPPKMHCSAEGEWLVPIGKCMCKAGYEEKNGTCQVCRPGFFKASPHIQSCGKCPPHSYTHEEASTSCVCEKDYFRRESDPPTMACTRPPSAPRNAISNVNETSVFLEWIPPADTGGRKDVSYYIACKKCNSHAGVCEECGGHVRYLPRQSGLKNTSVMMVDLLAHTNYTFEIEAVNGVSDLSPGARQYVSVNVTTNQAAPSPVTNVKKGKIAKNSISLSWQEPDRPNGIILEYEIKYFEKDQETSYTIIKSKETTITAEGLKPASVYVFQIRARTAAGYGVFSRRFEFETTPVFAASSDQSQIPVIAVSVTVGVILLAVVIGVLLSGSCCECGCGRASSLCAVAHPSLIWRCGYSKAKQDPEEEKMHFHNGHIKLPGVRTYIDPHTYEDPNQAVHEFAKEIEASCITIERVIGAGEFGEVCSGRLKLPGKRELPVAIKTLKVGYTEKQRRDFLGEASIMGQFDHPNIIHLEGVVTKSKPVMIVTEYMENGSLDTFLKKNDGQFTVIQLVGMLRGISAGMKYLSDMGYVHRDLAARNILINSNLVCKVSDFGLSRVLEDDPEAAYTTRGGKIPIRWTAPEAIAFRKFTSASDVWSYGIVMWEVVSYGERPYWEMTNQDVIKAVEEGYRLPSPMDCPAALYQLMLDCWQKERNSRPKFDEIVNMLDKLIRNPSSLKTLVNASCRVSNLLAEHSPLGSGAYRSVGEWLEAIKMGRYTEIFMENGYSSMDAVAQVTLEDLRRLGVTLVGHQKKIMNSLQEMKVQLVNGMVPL

Row | SMILES | IC50 (hERG) | hERG inhibition (hERG) | remaining at 1 h, 1 μM [1] | % enzyme activity (DDR2) | remaining activity at 1 µM (CAMK1g) | % enzyme activity (EGFR) | remaining activity at 1 µM (MEKK3) | % enzyme activity (DAPK1) | remaining activity at 1 µM (PKG1a) | % enzyme activity (CK1G3) | remaining activity at 1 µM (EPHA5) | remaining activity at 1 µM (ROCK2)
1 | COc1cc(-c2cncc(-c3ccc(N4CCN(C)CC4)cc3)c2C)cc(F)c1C(N)=O [Compound 26a, 2-Fluoro-6-methoxy-4-(4-methyl-5-(4-(4-methylpiperazin-1-yl)phenyl)pyridin-3-yl)benzamide] | >30 µM | > 30 µM | 78% | 96.68% | 102% | 95.66% | 98% | 94.56% | 97.9% | 64.87% | 92.2% | 116%
2 | COc1cc(-c2cncc(-c3ccc(N4C[C@@H](C)N(C)[C@@H](C)C4)cc3)c2C)cc(F)c1C(N)=O [Compound 26c, 2-Fluoro-6-methoxy-4-(4-methyl-5-(4-((3R,5S)-3,4,5-trimethylpiperazin-1-yl)phenyl)pyridin-3-yl)benzamide] | – | 18.8 µM | 47.5% | 92.27% | 108% | 93.91% | 109% | 96.25% | 102% | 77.64% | 92.7% | 101%
